Here are results for eleven molecules from US11629166B2, “Compound for treating clostridium difficile” (priority 2014, dated 2023).

What all share (assay type): cell-based, Clostridium Difficile
Assay [1] deals with C. Difficile NCTC 11204 and ribotype 027 (R20291) spores. The assay is described as follows: Germination tests, heat shock method (heat vs ice). Particulars: 2% (w/v) germination solution, 1 hour, strains 11204 and 027; for >1 log reduction on heat: then 70° C. for 20 minutes, reduction suggests germinant; for >1 log reduction on ice: control samples kept on ice, reduction suggests sporicide or germinant/antimicrobial. How it is done:
Many of the synthesised compounds were tested for their germinating and antimicrobial abilities against C. Difficile. Due to the insolubility of some of the compounds in water, DMSO, ethanol and methanol were used to dissolve the compounds.
The C. Difficile reference strain, NCTC 11204 and C. Difficile ribotype 027 (R20291) (Anaerobic Reference Laboratory, Cardiff, UK) were used during testing.
Spore suspensions of C. Difficile were prepared following the method proposed by Shetty et al. (1999). Briefly, Columbia base agar plates were inoculated with the relevant strain of C. Difficile and incubated for 72 hours anaerobically at 37° C. (MiniMACS anaerobic cabinet, Don Whitley Scientific, Shipley, UK). Then, the plates were removed and left or 24 hours in aerobic conditions at room temperature. Colonies were then harvested into 20 mL of 50% (w/v) ethanol and 50% saline, and vortex thoroughly. These were stored at 4° C. until needed.
All experiments were performed in triplicate using spore suspensions containing 1×10^7 CFU mL^−1 spores of C. difficile NCTC 11204 and ribotype 027.
Before use, 1 mL of spores were centrifuged at 13000 rpm for 10 minutes (Spectrafuge 24D; Labnet, Woodbridge, USA). The supernatant was discarded, and the pellet resuspended in 1 mL sterile distilled water and vortex mixed thoroughly.
Germination solutions were prepared using 2% (w/v) of the compound in diluent (DMSO, ethanol, methanol, water) plus double strength thioglycollate medium (Oxoid, UK).
For the heat shock method, 100 μl spores were exposed to 100 μl of the germination solution and incubated at room temperature in air for 1 hour. The entire 200 μl sample was then added to 800 μl sterile distilled water to dilute out the germinant to ineffective concentrations. Samples were placed on heat at 70° C. for 20 minutes to eliminate any germinated, metabolically active spores. Control samples were kept on ice. Solutions were then diluted accordingly using sterile distilled water, and cultured onto fastidious anaerobic agar (Lab M, Bury, UK), supplemented with 0.1% (w/v) sodium taurocholate (ST) and 5% (w/v) defibrinated horse blood using the Miles and Misra method (Miles et al., 1938). These were then incubated anaerobically for 48 hours at 37° C. (MiniMACS anaerobic cabinet, Don Whitley Scientific, Shipley, UK) and the CFU mL^−1 counted.
The results from the table above show the compounds that gave a 1 log reduction or more between the initial spore count and the spore count after the heat and ice treatment. […] Due to the nature of this test, it is difficult to distinguish between the two.

The subject of assay [2] is C. Difficile spores. The assay is described as follows: Germination and antimicrobial efficiency (dual activity) of compound 129 in HDPE. Particulars: for % Reduction 2 hours / Log Reduction 2 hours / % Reduction 24 hours / Log Reduction 24 hours / % Reduction 96 hours / Log Reduction 96 hours: HDPE polymer. The text has this: Reactively processed HDPE polymer containing compound 129 is shown to have the ability to both germinate the spores of C. […] This exemplifies, therefore, the dual action of compound 129 and its efficacy both as a germinant and an antimicrobial.

In assay [3] the test system is C. Difficile spores. Nature of the assay: Germination activity of compound 129 reactively processed with HDPE after subsequent exposure to ethanol. Particulars: for % Reduction 2 hours / Log Reduction 2 hours / % Reduction 24 hours / Log Reduction 24 hours / % Reduction 96 hours / Log Reduction 96 hours: HDPE polymer film, after ethanol exposure. How it is done: HDPE (high density polyethylene) samples containing the modified bile salt compound 129, reactively processed under different compression moulding conditions, were tested to determine the germination activity. […] Difficile spores. This confirms the germination activity of compound 129 when incorporated into HDPE by reactive processing.

On to `C[C@H](CCC(=O)NCCC[N+](C)(C)c1ccc(C(=O)c2ccccc2)cc1)[C@H]1CC[C@H]2[C@@H]3[C@H](O)C[C@@H]4C[C@H](O)CC[C@]4(C)[C@H]3C[C@H](O)[C@]12C.[Br-]` [2/148], for which the “>1 log reduction on heat” value in assay [1] is reported as “Yes (027)”.

As for `C[C@H](CCC(=O)NCC[N+]1(c2ccc(C(=O)c3ccccc3)cc2)CCCC1)[C@H]1CC[C@H]2[C@@H]3[C@H](O)C[C@@H]4C[C@H](O)CC[C@]4(C)[C@H]3C[C@H](O)[C@]12C.[Br-]` [2/150], the “>1 log reduction on ice” value in assay [1] is recorded as “Yes (11204)”.

Take `C[C@H](CCC(=O)NCc1ccccc1)[C@H]1CC[C@H]2[C@@H]3[C@H](O)C[C@@H]4C[C@H](O)CC[C@]4(C)[C@H]3C[C@H](O)[C@]12C` [Compound 2, cholic acid benzyl amide]: the “>1 log reduction on ice” value in assay [1] is reported as “Yes (11204)”.

On to `CCCCN(CCCC)CCCNC(=O)CC[C@@H](C)[C@H]1CC[C@H]2[C@@H]3[C@H](O)C[C@@H]4C[C@H](O)CC[C@]4(C)[C@H]3C[C@H](O)[C@]12C` [Compound 7], for which, in assay [1], the “>1 log reduction on ice” value is “Yes (11204)” and the “>1 log reduction on heat” value was “Yes (11204)”.

Take `C[C@H](CCC(=O)NCCN1CCCC1)[C@H]1CC[C@H]2[C@@H]3[C@H](O)C[C@@H]4C[C@H](O)CC[C@]4(C)[C@H]3C[C@H](O)[C@]12C` [Compound 10]: the “>1 log reduction on heat” value in assay [1] is “Yes (11204)”.

As for `CCCCCCCCCCCCCCCCCCNC(=O)CC[C@@H](C)[C@H]1CC[C@H]2[C@@H]3[C@H](O)C[C@@H]4C[C@H](O)CC[C@]4(C)[C@H]3C[C@H](O)[C@]12C` [Compound 16], in assay [1], the “>1 log reduction on heat” value was “Yes (11204 and 027)”.

Regarding `CCCCCC[N+](C)(C)CCCNC(=O)CC[C@@H](C)[C@H]1CCC2C3C(C[C@H](O)[C@@]21C)[C@@]1(C)CC[C@@H](O)CC1C[C@H]3O` (stereo partly shown) [Compound 29], in assay [1], the “>1 log reduction on heat” value is listed as “yes”.

For the molecule `C=CC[N+](C)(C)CCCNC(=O)CC[C@@H](C)[C@H]1CCC2C3C(C[C@H](O)[C@@]21C)[C@@]1(C)CC[C@@H](O)CC1C[C@H]3O.[Br-]` (stereo partly shown) [Compound 34, 3-cholanamidopropyl-allyl-dimethyl-ammonium;bromide], the “>1 log reduction on heat” value in assay [1] is on record as “yes”.

For the molecule `CCC[N+]1(CCNC(=O)CC[C@@H](C)[C@H]2CC[C@H]3[C@@H]4[C@H](O)C[C@@H]5C[C@H](O)CC[C@]5(C)[C@H]4C[C@H](O)[C@]23C)CCCC1.[I-]` [Compound 45], in assay [1], the “>1 log reduction on ice” value is given as “yes” and the “>1 log reduction on heat” value was “yes”.

On to `C[C@H](CCC(=O)NCC[N+]1(Cc2ccccc2)CCCC1)[C@H]1CC[C@H]2[C@@H]3[C@H](O)C[C@@H]4C[C@H](O)CC[C@]4(C)[C@H]3C[C@H](O)[C@]12C` [Compound 50], for which, in assay [1], the “>1 log reduction on ice” value is “yes” and the “>1 log reduction on heat” value was “yes”.

Consider `C=Cc1ccc(C[N+](C)(C)CCNC(=O)CC[C@@H](C)[C@H]2CCC3C4CCC5C[C@H](O)CC[C@]5(C)C4CC[C@@]32C)cc1.[Cl-]` (stereo partly drawn) [Compound 129, 2-[[(4R)-4-[(3R,10S,13R,17R)-3-hydroxy-10,13-dimethyl-2,3,4,5,6,7,8,9,11,-12,14,15,16,17-tetradecahydro-1H-cyclopenta[a]phenanthren-17-yl]pentanoyl]-amino]ethyl-dimethyl-[(4-vinylphenyl)methyl]ammonium chloride], for which, in the assay on C. Difficile spores [2] (3% T101 165° C.), the “% Reduction 2 hours” value was found to be 96.9%, the “Log Reduction 2 hours” value came out at 1.563 Log, the “% Reduction 24 hours” value is 86.9% and the “Log Reduction 24 hours” value stood at 0.940 Log. In the assay on C. Difficile spores [2] (3% T101 165° C.), the “% Reduction 96 hours” value came out at 78.0% and the “Log Reduction 96 hours” value is on record as 0.714 Log. Besides, in the assay with C. Difficile spores [2] (3% T101 170° C.), the “% Reduction 2 hours” value is recorded as 79.6%, the “Log Reduction 2 hours” value was found to be 0.747 Log, the “% Reduction 24 hours” value turned out to be 75.4% and the “Log Reduction 24 hours” value came to 0.666 Log. Also, in the assay on C. Difficile spores [2] (3% T101 170° C.), the “% Reduction 96 hours” value came to 88.5% and the “Log Reduction 96 hours” value was determined as 0.998 Log. In the assay with C. Difficile spores [2] (6% T101 160° C.), the “% Reduction 2 hours” value is listed as 0.0%, the “Log Reduction 2 hours” value came out at 0.057 Log, the “% Reduction 24 hours” value was found to be 44.8% and the “Log Reduction 24 hours” value was found to be 0.315 Log. For the same molecule, in the assay with C. Difficile spores [2] (6% T101 160° C.), the “% Reduction 96 hours” value was 86.8% and the “Log Reduction 96 hours” value turned out to be 0.936 Log. Also, the spore reduction with C. Difficile spores [2] (reactive processing of the polymer at 170° C.) stood at 79.6%. For the same molecule, the “reduction of the subsequent metabolically active bio-load after spore germination” value in the assay on C. Difficile spores [2] (reactively processed HDPE polymer containing compound 129) was found to be 96.9%. Also, the “germination activity, lower vs higher processing temperature” value in the assay with C. Difficile spores [3] (3% films, samples processed at the lower temperature (165° C. vs 170° C.), after 24 and 46 hours) was “slightly higher level of germination activity”. Besides, in the assay with C. Difficile spores [3] (3% T101 160° C.), the “% Reduction 2 hours” value worked out at 79.8%, the “Log Reduction 2 hours” value stood at 0.752 Log, the “% Reduction 24 hours” value was 67.6% and the “Log Reduction 24 hours” value worked out at 0.546 Log. For the same molecule, in the assay on C. Difficile spores [3] (3% T101 160° C.), the “% Reduction 96 hours” value is given as 69.8% and the “Log Reduction 96 hours” value came out at 0.577 Log. In the assay on C. Difficile spores [3] (3% T101 165° C.), the “% Reduction 2 hours” value is listed as 99.2%, the “Log Reduction 2 hours” value turned out to be 2.165 Log, the “% Reduction 24 hours” value is recorded as 97.1% and the “Log Reduction 24 hours” value came to 1.598 Log. Also, in the assay on C. Difficile spores [3] (3% T101 165° C.), the “% Reduction 96 hours” value was 92.0% and the “Log Reduction 96 hours” value came out at 1.154 Log. In the assay with C. Difficile spores [3] (3% T101 170° C.), the “% Reduction 2 hours” value is listed as 99.2%, the “Log Reduction 2 hours” value is listed as 2.165 Log, the “% Reduction 24 hours” value was 87.8% and the “Log Reduction 24 hours” value turned out to be 0.971 Log. In the assay with C. Difficile spores [3] (3% T101 170° C.), the “% Reduction 96 hours” value was 82.0% and the “Log Reduction 96 hours” value amounted to 0.802 Log. Further, in the assay with C. Difficile spores [3] (HDPE samples with a higher amount of compound 129 (6%)), the germination activity entry is listed as “did not perform well”. In addition, in the assay on C. Difficile spores [3] (polymer film containing 3% of compound 129, prepared both at 165° C. and 170° C., at 2 hours), the “Log reduction compared to the HDPE/peroxide T101 control” value was 2.2 Log. Further, the “reduction in C. Difficile spores” value in the assay with C. Difficile spores [3] (prepared at 165° C./170° C., following subsequent exposure to ethanol) is reported as 99.2%.
